Source: article PMC10535864, “Novel Aminopyrimidine-2,4-diones, 2-Thiopyrimidine-4-ones, and 6-Arylpteridines as Dual-Target Inhibitors of BRD4/PLK1: Design, Synthesis, Cytotoxicity, and Computational Studies” (Pharmaceuticals, 2023)
Where two headings read alike, the source gives them in different places.

Key:
[1] = MTT cytotoxicity assay, U-937; type: cell-based; conditions: Homo sapiens, U-937, U937, MTT;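 also: Six-dose MTT colorimetric assay on cell monolayers, formazan absorbance read at 560 nm with 620 nm background removed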
U-937 renal cancer cells = experiment: MTT cytotoxicity assay, U-937; type: cell-based; conditions: for IC50: Homo sapiens, U-937; for Selectivity Indices (SI) U-937: SI = IC50 normal cells (Vero)/IC50 cancer cells;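 as to all read-outs here: Six-dose MTT colorimetric assay on cell monolayers, formazan absorbance read at 560 nm with 620 nm background removed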
[2] = test system: HT-29 colorectal adenocarcinoma cells; experiment: MTT cytotoxicity assay, HT-29; type: cell-based; conditions: for viability at 0.312 µM / viability at 0.625 µM / viability at 1.25 µM / viability at 2.5 µM / viability at 5 µM / viability at 10 µM / IC50: Homo sapiens, HT-29; for Selectivity Indices (SI) HT-29: SI = IC50 normal cells (Vero)/IC50 cancer cells
Method in brief: (§1)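 Cells seeded at 1 X 10^5 cells/mL and grown 24 h at 37°C to a monolayer, then exposed to two-fold compound dilutions in RPMI with 2% serum, six doses. MTT added for 4 h at 37°C, formazan dissolved in DMSO, OD read at 560 nm minus 620 nm background. IC50 from dose-response.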

[3] = test system: MDA-MB-231 breast cancer cells; experiment: MTT cytotoxicity assay, MDA-MB-231; type: cell-based; conditions: for IC50 / viability at 0.312 µM / viability at 0.625 µM / viability at 1.25 µM / viability at 2.5 µM / viability at 5 µM / viability at 10 µM: Homo sapiens; for IC50 / viability at 0.312 µM / viability at 0.625 µM / viability at 1.25 µM / viability at 2.5 µM / viability at 5 µM / viability at 10 µM / Toxicity %: MDA-MB-231; for Selectivity Indices (SI) MDA-MB-231: SI = IC50 normal cells (Vero)/IC50 cancer cells, ≥5 highly, >2 moderately, <2 non-selective
Method in brief: as §1

human recombinant PLK1 = human recombinant PLK1 (Homo sapiens, UniProt P53350); experiment: PLK1 inhibitory activity assay (ADP-Glo Kinase Assay); type: biochemical; conditions: for %inh: PLK1 Lab Report; for IC50: mean of three independent experiments, read-out: PLK1 IC50 ± SD
human recombinant PLK1, sequence (P53350 whole entry): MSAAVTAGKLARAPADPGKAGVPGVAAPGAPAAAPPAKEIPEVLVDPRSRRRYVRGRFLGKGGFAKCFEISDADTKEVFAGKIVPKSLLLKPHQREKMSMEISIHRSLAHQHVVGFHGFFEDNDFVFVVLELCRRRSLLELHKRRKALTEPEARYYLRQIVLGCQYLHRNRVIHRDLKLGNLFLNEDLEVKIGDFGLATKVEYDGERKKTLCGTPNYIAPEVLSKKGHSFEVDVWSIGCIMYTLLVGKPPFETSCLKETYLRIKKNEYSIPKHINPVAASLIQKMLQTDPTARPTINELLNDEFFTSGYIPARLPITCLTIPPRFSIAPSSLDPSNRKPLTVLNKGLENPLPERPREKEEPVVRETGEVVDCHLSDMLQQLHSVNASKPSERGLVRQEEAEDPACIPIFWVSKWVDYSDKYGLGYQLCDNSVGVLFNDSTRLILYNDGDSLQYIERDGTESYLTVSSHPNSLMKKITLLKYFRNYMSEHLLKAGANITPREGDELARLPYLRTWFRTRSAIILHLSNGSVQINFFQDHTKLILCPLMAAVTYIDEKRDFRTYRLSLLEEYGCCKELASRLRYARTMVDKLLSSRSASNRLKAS
Experimental: The BRD4 and PLK1 inhibitory assays were carried out in vitro in accordance with the manufacturer’s instructions; BRD4 was assessed using AlphaLISA Bromodomain Assay Protocol, and PLK1 kinase was tested using the ADP-Glo™ Kinase Assay Protocol, as detailed in the Supplementary file. […]
1.2.2. PLK1 inhibitory activity assay
The kinase reaction was performed with active human recombinant PLK1 and combined with the substrate dephosphorylated casein (positive control) using 1 X reaction buffer (40 mM Tris-HCl pH 7.4, 20 mM MgCl2, 0.1 mg/mL BSA, 1 mM DTT) and 20 μM ATP. The reaction was incubated at30°C for 45 minutes. The amount of ATP transferred was calculated using […] reagent from Promega according to the manufacturer’s instruction.
A plate-reading luminometer isused to measure the luminescence. […]

[4] = MTT cytotoxicity assay, normal Vero cells; type: cell-based; conditions: African green monkey, normal Vero cells, MTT; for IC50: mean of three independent experiments ± SD, read-out: In Vitro Cytotoxicity against Normal Cells IC50 Value, Vero Cells; for viability at 0.312 µM / viability at 0.625 µM / viability at 1.25 µM / viability at 2.5 µM / viability at 5 µM / viability at 10 µM: Vero
Experimental: (§2) Using a six-dose MTT colorimetric assay [44, 66], all new synthetic compounds were tested for cytotoxicity against three cancer cell lines: MDA-MB-231 breast cancer cells, HT-29 colorectal adenocarcinoma cells, and U-937 renal cancer cells. […] These cell lines were supplied by ATCC (American Type Culture Collection) via the Holding company for biological products and vaccines (VACSERA, Cairo, Egypt). The reference control used was Methotrexate.
1.1.In-vitro cytotoxicity screening
(§3) Using a six-dose MTT colorimetric assay [44, 66], allnew synthetic compounds were tested for cytotoxicity against three cancer cell lines: MDA-MB-231 breast cancer cells,HT-29 colorectal adenocarcinoma cells, and U-937 renal
(§4) The cell lines were supplied by ATCC (American Type Culture Collection). The reference control used was Methotrexate. The cytotoxic activities of the examined compounds were quantified by inoculating a 96-well tissue culture plate with 1 X 10^5 cells / mL (100 uL/well) and incubating it at 37°C for 24 hours to develop a complete monolayer sheet. After forming a confluent sheet of cells, the growth medium was decanted from 96-well microtiter plates, and the cell monolayer was washed twice with wash media. Two-fold dilutions of tested samples were made in RPMI medium with 2% serum (maintenance medium), and 0.1 mL of each dilution was tested in different wells, with three wells serving as controls and receiving only maintenance medium. Following that, the plate was incubated at 37°C and examined. Cells were investigated for any physical signs of toxicity, such as partial or complete monolayer loss, rounding, shrinkage, or cell granulation. MTT solution was prepared (5mg/ml in PBS) (BIO BASIC CANADA INC), and 20 uL MTT solution was added to each well. After 5 minutes on a shaking table at150 rpm to thoroughly mix the MTT into the media, it was incubated (37C, 5% CO2) for 4 hours to allow the MTT to be metabolized. Formazan (MTT metabolic product) was resuspended in 200 uL DMSO and shaken at 150 rpm for 5 minutes to thoroughly mix the formazan into the solvent. The optical density was measured at 560 nm, and the background was subtracted at 620 nm. Finally, the IC50 of the test compound in comparison to the reference was calculated using the GraphPad Prism software.

normal Vero cells = experiment: MTT cytotoxicity assay, normal Vero cells; type: cell-based; conditions: Vero; for IC50: Chlorocebus sabaeus, supplement viability lab report; for Toxicity %: MTT
Experimental: as §2
1.1.In-vitro cytotoxicity screening
as §3, §4

BRD4 (BD2) = target: T1, BRD4 (BD2) (Homo sapiens, UniProt O60885); experiment: BRD4 inhibitory activity assay (AlphaLISA Bromodomain Assay); type: binding; conditions: for %inh: BRD4 Lab Report; for IC50: mean of three independent experiments, read-out: BRD4 IC50 ± SD;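 as to all read-outs here: in vitro inhibition of recombinant BRD4 BD2 bromodomain binding to a BET bromodomain ligand, read by AlphaLISA proximity signal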
T1 construct: BRD4 (BD2) should be thawed on ice; purchased
Experimental: The BRD4 and PLK1 inhibitory assays were carried out in vitro in accordance with the manufacturer’s instructions; BRD4 was assessed using AlphaLISA Bromodomain Assay Protocol [67], and PLK1 kinase was tested using the ADP-Glo™ Kinase Assay Protocol [68], as detailed in the Supplementary file.
The BRD4 and PLK1 inhibitory assays were carried out in vitro in accordance with the manufacturer's instructions; BRD4 was assessed using AlphaLISA Bromodomain Assay Protocol [67], and PLK1 kinase was tested using the ADP-Glo™ Kinase Assay Protocol [68],
The master mixture was prepared as follows: N wells × (2.5 µL 3x BRD Homogeneous Assay Buffer 1 + 1 µL BET Bromodomain Ligand + 1.5 µL H2O). BRD4 (BD2) should be thawed on ice. Simply, the protein-containing tube was spined to recover the full content of the tube after the firstthaw. Both proteins should be aliquoted into single-use aliquots. Immediately, any remaining undiluted protein should be stored in aliquots at -80°C. BRD4 (BD2) was diluted in 1x BRD Homogeneous Assay Buffer 1 at 4 ng/µL. The diluted proteins were kept on ice until they were used. 5 µl of the master mixture is added to each well designated for the “Positive Control”, “Test Inhibitor”, and “Blank”. For the “Substrate Control”, 2.5 µL 3x BRD Homogeneous Assay Buffer 1 + 1 µL Non-acetylated Ligand 1 + 1.5 µL H2O is added. Each “Test Inhibitor” well received 2.5 µL of inhibitor solution, while the “Positive
Control”, “Substrate Control”, and “Blank” wells received 2.5 µL of the same solution without inhibitor (inhibitor buffer). Then, the “Blank” well is filled with 2.5 µL of 1x BRD Homogeneous Assay Buffer 1. After that, GSH
10 µL per well is added, the plate isshaken, and itis incubated at room temperature for 30 minutes. Streptavidin-
10 µL is added per well and incubated at room temperature for further 15 – 30 minutes [67]. The Alpha counts were read using the EnVision® multimode plate reader with the standard Alpha detection settings.

[5] = MTT, mean of three independent experiments ± SD, read-out: IC50 Value U-937
[6] = supplement viability lab report, U937, read-out: IC50 ± SD
[7] = MTT, mean of three independent experiments ± SD, read-out: IC50 Value HT-29
[8] = supplement viability lab report, HT29, read-out: IC50 ± SD
[9] = MTT, mean of three independent experiments ± SD, read-out: IC50 Value MDA-MB-231
[10] = supplement viability lab report, read-out: IC50 ± SD

CCn1c(N)c(/N=C(/CBr)c2ccc(OC)cc2)c(=O)[nH]c1=O [Compound 6a, (E)-6-Amino-5-((2-bromo-1-(4-methoxyphenyl)ethylidene)amino)-1-ethylpyrimidine-2,4(1H,3H)-dione]
viability at 0.312 µM [1]: 99.1%
viability at 0.625 µM [1]: 96.1%
viability at 1.25 µM [1]: 40.3%
viability at 2.5 µM [1]: 14.5%
viability at 5 µM [1]: 13.2%
viability at 10 µM [1]: 9.91%
IC50 (U-937 renal cancer cells; [5]): 970 ± 10 nM
IC50 (U-937 renal cancer cells; [6]): 1120 nM
Selectivity Indices (SI) U-937 (U-937 renal cancer cells): 2.12
Toxicity % (U-937 renal cancer cells; U937, MTT, 0.312 uM): 0.8715%
Toxicity % (U-937 renal cancer cells; U937, MTT, 0.625 uM): 3.867%
Toxicity % (U-937 renal cancer cells; U937, MTT, 1.25 uM): 59.69%
Toxicity % (U-937 renal cancer cells; U937, MTT, 2.5 uM): 85.46%
Toxicity % (U-937 renal cancer cells; U937, MTT, 5 uM): 86.76%
Toxicity % (U-937 renal cancer cells; U937, MTT, 10 uM): 90.09%
Toxicity % ([2]; HT29, MTT, 0.312 uM): 0.3876%
Toxicity % ([2]; HT29, MTT, 0.625 uM): 0.04307%
Toxicity % ([2]; HT29, MTT, 1.25 uM): 26.57%
Toxicity % ([2]; HT29, MTT, 2.5 uM): 89.88%
Toxicity % ([2]; HT29, MTT, 5 uM): 95.95%
Toxicity % ([2]; HT29, MTT, 10 uM): 95.74%
viability at 0.312 µM ([2]; HT29, MTT, 0.312 uM): 99.6%
viability at 0.625 µM ([2]; HT29, MTT, 0.625 uM): 100%
viability at 1.25 µM ([2]; HT29, MTT, 1.25 uM): 73.4%
viability at 2.5 µM ([2]; HT29, MTT, 2.5 uM): 10.1%
viability at 5 µM ([2]; HT29, MTT, 5 uM): 4.05%
viability at 10 µM ([2]; HT29, MTT, 10 uM): 4.26%
IC50 [2, 7]: 750 ± 10 nM
IC50 [2, 8]: 1690 nM
Selectivity Indices (SI) HT-29 [2]: 2.75
IC50 [3, 9]: 630 ± 10 nM
viability at 0.312 µM ([3]; MTT, 0.312 uM): 100%
viability at 0.625 µM ([3]; MTT, 0.625 uM): 98.9%
viability at 1.25 µM ([3]; MTT, 1.25 uM): 27.1%
viability at 2.5 µM ([3]; MTT, 2.5 uM): 5.98%
viability at 5 µM ([3]; MTT, 5 uM): 3.37%
viability at 10 µM ([3]; MTT, 10 uM): 4.03%
IC50 [3, 10]: 1000 nM
Toxicity % ([3]; MTT, 0.312 uM): 0.04433%
Toxicity % ([3]; MTT, 0.625 uM): 1.064%
Toxicity % ([3]; MTT, 1.25 uM): 72.92%
Toxicity % ([3]; MTT, 2.5 uM): 94.02%
Toxicity % ([3]; MTT, 5 uM): 96.63%
Toxicity % ([3]; MTT, 10 uM): 95.97%
Selectivity Indices (SI) MDA-MB-231 [3]: 3.27
%inh (human recombinant PLK1; conc 0.01 (unit not given)): 25%
%inh (human recombinant PLK1; conc 0.1 (unit not given)): 42%
%inh (human recombinant PLK1; conc 1 (unit not given)): 65%
%inh (human recombinant PLK1; conc 10 (unit not given)): 87%
%inh (human recombinant PLK1; conc 100 (unit not given)): 94%
IC50 (human recombinant PLK1): 218 ± 10 nM
IC50 [4]: 2060 ± 30 nM
viability at 0.312 µM [4]: 99.8%
viability at 0.625 µM [4]: 99.2%
viability at 1.25 µM [4]: 83.6%
viability at 2.5 µM [4]: 26.8%
viability at 5 µM [4]: 11.6%
viability at 10 µM [4]: 4.59%
IC50 (normal Vero cells): 1950 nM
Toxicity % (normal Vero cells; 0.312 uM): 0.1996%
Toxicity % (normal Vero cells; 0.625 uM): 0.7585%
Toxicity % (normal Vero cells; 1.25 uM): 16.37%
Toxicity % (normal Vero cells; 2.5 uM): 73.21%
Toxicity % (normal Vero cells; 5 uM): 88.38%
Toxicity % (normal Vero cells; 10 uM): 95.41%
%inh (BRD4 (BD2); conc 0.01 (unit not given)): 34%
%inh (BRD4 (BD2); conc 0.1 (unit not given)): 49%
%inh (BRD4 (BD2); conc 1 (unit not given)): 73%
%inh (BRD4 (BD2); conc 10 (unit not given)): 88%
%inh (BRD4 (BD2); conc 100 (unit not given)): 95%
IC50 (BRD4 (BD2)): 141 ± 6 nM

COc1ccc(/C(CBr)=N\c2c(N)n(Cc3ccccc3Cl)c(=O)[nH]c2=O)cc1 [Compound 6b, (E)-6-Amino-5-((2-bromo-1-(4-methoxyphenyl)ethylidene)amino)-1-(2-chlorobenzyl) pyrimidine-2,4(1H,3H)-dione]
viability at 0.312 µM [1]: 99.1%
viability at 0.625 µM [1]: 77.5%
viability at 1.25 µM [1]: 28%
viability at 2.5 µM [1]: 12.2%
viability at 5 µM [1]: 10.4%
viability at 10 µM [1]: 9.69%
IC50 (U-937 renal cancer cells; [5]): 1120 ± 20 nM
IC50 (U-937 renal cancer cells; [6]): 970 nM
Selectivity Indices (SI) U-937 (U-937 renal cancer cells): 1.74
Toxicity % (U-937 renal cancer cells; U937, MTT, 0.312 uM): 0.9259%
Toxicity % (U-937 renal cancer cells; U937, MTT, 0.625 uM): 22.49%
Toxicity % (U-937 renal cancer cells; U937, MTT, 1.25 uM): 72%
Toxicity % (U-937 renal cancer cells; U937, MTT, 2.5 uM): 87.8%
Toxicity % (U-937 renal cancer cells; U937, MTT, 5 uM): 89.6%
Toxicity % (U-937 renal cancer cells; U937, MTT, 10 uM): 90.31%
Toxicity % ([2]; HT29, MTT, 0.312 uM): 0.3876%
Toxicity % ([2]; HT29, MTT, 0.625 uM): 47.33%
Toxicity % ([2]; HT29, MTT, 1.25 uM): 95.82%
Toxicity % ([2]; HT29, MTT, 2.5 uM): 95.95%
Toxicity % ([2]; HT29, MTT, 5 uM): 95.61%
Toxicity % ([2]; HT29, MTT, 10 uM): 93.71%
viability at 0.312 µM ([2]; HT29, MTT, 0.312 uM): 99.6%
viability at 0.625 µM ([2]; HT29, MTT, 0.625 uM): 52.7%
viability at 1.25 µM ([2]; HT29, MTT, 1.25 uM): 4.18%
viability at 2.5 µM ([2]; HT29, MTT, 2.5 uM): 4.05%
viability at 5 µM ([2]; HT29, MTT, 5 uM): 4.39%
viability at 10 µM ([2]; HT29, MTT, 10 uM): 6.29%
IC50 [2, 7]: 1690 ± 10 nM
IC50 [2, 8]: 750 nM
Selectivity Indices (SI) HT-29 [2]: 1.15
IC50 [3, 9]: 1000 ± 20 nM
viability at 0.312 µM ([3]; MTT, 0.312 uM): 84.9%
viability at 0.625 µM ([3]; MTT, 0.625 uM): 26.6%
viability at 1.25 µM ([3]; MTT, 1.25 uM): 10.2%
viability at 2.5 µM ([3]; MTT, 2.5 uM): 8.47%
viability at 5 µM ([3]; MTT, 5 uM): 8.55%
viability at 10 µM ([3]; MTT, 10 uM): 4.7%
IC50 [3, 10]: 630 nM
Toxicity % ([3]; MTT, 0.312 uM): 15.07%
Toxicity % ([3]; MTT, 0.625 uM): 73.45%
Toxicity % ([3]; MTT, 1.25 uM): 89.85%
Toxicity % ([3]; MTT, 2.5 uM): 91.53%
Toxicity % ([3]; MTT, 5 uM): 91.45%
Toxicity % ([3]; MTT, 10 uM): 95.3%
Selectivity Indices (SI) MDA-MB-231 [3]: 1.95
%inh (human recombinant PLK1; conc 0.01 (unit not given)): 28%
%inh (human recombinant PLK1; conc 0.1 (unit not given)): 40%
%inh (human recombinant PLK1; conc 1 (unit not given)): 65%
%inh (human recombinant PLK1; conc 10 (unit not given)): 80%
%inh (human recombinant PLK1; conc 100 (unit not given)): 94%
IC50 (human recombinant PLK1): 204 ± 9 nM
IC50 [4]: 1950 ± 50 nM
viability at 0.312 µM [4]: 99.1%
viability at 0.625 µM [4]: 99.1%
viability at 1.25 µM [4]: 70.3%
viability at 2.5 µM [4]: 38.4%
viability at 5 µM [4]: 12.8%
viability at 10 µM [4]: 6.15%
IC50 (normal Vero cells): 2060 nM
Toxicity % (normal Vero cells; 0.312 uM): 0.9182%
Toxicity % (normal Vero cells; 0.625 uM): 0.8782%
Toxicity % (normal Vero cells; 1.25 uM): 29.74%
Toxicity % (normal Vero cells; 2.5 uM): 61.6%
Toxicity % (normal Vero cells; 5 uM): 87.19%
Toxicity % (normal Vero cells; 10 uM): 93.85%
%inh (BRD4 (BD2); conc 0.01 (unit not given)): 30%
%inh (BRD4 (BD2); conc 0.1 (unit not given)): 46%
%inh (BRD4 (BD2); conc 1 (unit not given)): 67%
%inh (BRD4 (BD2); conc 10 (unit not given)): 83%
%inh (BRD4 (BD2); conc 100 (unit not given)): 94%
IC50 (BRD4 (BD2)): 77 ± 3 nM
